Results reported in patent US11414384B2, “P300/CBP hat inhibitors” (Constellation Pharmaceuticals, Inc., priority 2018, dated 2022).

Experiments:
[1] = biological target: p300 HAT domain (residues 1287-1666) (Homo sapiens (Human), UniProt Q09472); test: p300 HAT SPA assay (scintillation proximity assay, acetylation of biotinylated H3(1-21) peptide); type: biochemical; conditions: p300 HAT domain; average of at least 2 replicate titrations; read-out: P300 HAT SPA IC50
Method in brief: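 Purified p300 HAT domain reaction transferred to streptavidin plates to capture biotinylated H3(1-21) peptide, incubated 1.5 hr at RT, and read by scintillation proximity. IC50 values derived from concentration-response data.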

full length p300 = full length p300 (Homo sapiens (Human), UniProt Q09472); test: full length p300 SPA assay; type: biochemical; conditions: average of at least 2 replicate titrations, read-out: FL P300 IC50
Description: Reactions were initiated with 12.5 μL 2 μM biotinylated H3(1-21) peptide (New England Peptide) and run for 1 hr at RT, then quenched with 20 μL stop solution (200 mM Tris pH 8.0, 200 mM EDTA, 2M NaCl, 160 μM anacardic acid). 35 μL of the reaction volume was transferred to a 384-well streptavidin FlashPlate (PerkinElmer) using a Bravo liquid handler (Velocity 11) and incubated for 1.5 hr at RT. Plates were aspirated, washed with 95 μL wash buffer (15 mM Tris pH 8.5, 0.069 μM Brij-35), aspirated, sealed, and scintillation counts read on a Topcount (PerkinElmer). Data were analyzed in Genedata to determine inhibitor IC50 values.
The full length p300 SPA assay was run following the same protocol as p300 HAT SPA assay, but used 6 nM purified full length p300 (purchased from Active Motif) in place of the purified p300-HAT domain.

[2] = tested on: acetylation of chromatin at H3K18 (catalyzed by p300 and CBP) in HCT-116 cells; test: H3K18Ac MSD cellular assay; type: cell-based; conditions: Homo sapiens, HCT-116, 2 h, 2 hr treatment, average of at least 2 replicate titrations
Description: Select compounds were also evaluated in a H3K18Ac MSD cellular assay that measures the ability of compounds to inhibit the acetylation of chromatin at H3K18, a process catalyzed by p300 and CBP. In a typical experiment the p300 HAT inhibitory activity inside cells of the compounds described herein was determined in accordance with the following experimental method. 20 k HCT-116 cells per well are plated in 75 μL RPMI+10% FBS media the night before treatment. Compounds plated in DMSO at 4× final concentration are resuspended in 30 μL RPMI+10% FBS, then 25 μL is combined with corresponding wells containing cells. Treated cells are incubated for 2 hr at 37° C., then lysed in 500 μL final volume and frozen at −80° C. MSD plates (Meso Scale Discovery) are coated overnight at 4° C. with 60 μL 1:500α-total histone antibody (Millipore MAB3422) in PBS. Plates are then blocked with 5% BSA in TBST shaking at RT for 1 hr, washed, and 30 μL lysate added to each well for 2 hr shaking at RT. Plates are washed and 25 μL 1:216α-H3K18ac antibody (CST 9675) in PBS added, then incubated for 1 hr shaking at RT. Plates are washed again, then 25 μL 1:1000 Sulfo-Tag goat a-rabbit antibody (Meso Scale Discovery R32Ab-1) in PBS is added for 1 hr shaking at RT. Plates are washed once more, then 150 μL 1× Read Buffer (MSD #R92TD-3) is added to all wells and read on MSD SECTOR Imager 2400 using the conventional read setup.

full length p300, sequence (Q09472 whole entry): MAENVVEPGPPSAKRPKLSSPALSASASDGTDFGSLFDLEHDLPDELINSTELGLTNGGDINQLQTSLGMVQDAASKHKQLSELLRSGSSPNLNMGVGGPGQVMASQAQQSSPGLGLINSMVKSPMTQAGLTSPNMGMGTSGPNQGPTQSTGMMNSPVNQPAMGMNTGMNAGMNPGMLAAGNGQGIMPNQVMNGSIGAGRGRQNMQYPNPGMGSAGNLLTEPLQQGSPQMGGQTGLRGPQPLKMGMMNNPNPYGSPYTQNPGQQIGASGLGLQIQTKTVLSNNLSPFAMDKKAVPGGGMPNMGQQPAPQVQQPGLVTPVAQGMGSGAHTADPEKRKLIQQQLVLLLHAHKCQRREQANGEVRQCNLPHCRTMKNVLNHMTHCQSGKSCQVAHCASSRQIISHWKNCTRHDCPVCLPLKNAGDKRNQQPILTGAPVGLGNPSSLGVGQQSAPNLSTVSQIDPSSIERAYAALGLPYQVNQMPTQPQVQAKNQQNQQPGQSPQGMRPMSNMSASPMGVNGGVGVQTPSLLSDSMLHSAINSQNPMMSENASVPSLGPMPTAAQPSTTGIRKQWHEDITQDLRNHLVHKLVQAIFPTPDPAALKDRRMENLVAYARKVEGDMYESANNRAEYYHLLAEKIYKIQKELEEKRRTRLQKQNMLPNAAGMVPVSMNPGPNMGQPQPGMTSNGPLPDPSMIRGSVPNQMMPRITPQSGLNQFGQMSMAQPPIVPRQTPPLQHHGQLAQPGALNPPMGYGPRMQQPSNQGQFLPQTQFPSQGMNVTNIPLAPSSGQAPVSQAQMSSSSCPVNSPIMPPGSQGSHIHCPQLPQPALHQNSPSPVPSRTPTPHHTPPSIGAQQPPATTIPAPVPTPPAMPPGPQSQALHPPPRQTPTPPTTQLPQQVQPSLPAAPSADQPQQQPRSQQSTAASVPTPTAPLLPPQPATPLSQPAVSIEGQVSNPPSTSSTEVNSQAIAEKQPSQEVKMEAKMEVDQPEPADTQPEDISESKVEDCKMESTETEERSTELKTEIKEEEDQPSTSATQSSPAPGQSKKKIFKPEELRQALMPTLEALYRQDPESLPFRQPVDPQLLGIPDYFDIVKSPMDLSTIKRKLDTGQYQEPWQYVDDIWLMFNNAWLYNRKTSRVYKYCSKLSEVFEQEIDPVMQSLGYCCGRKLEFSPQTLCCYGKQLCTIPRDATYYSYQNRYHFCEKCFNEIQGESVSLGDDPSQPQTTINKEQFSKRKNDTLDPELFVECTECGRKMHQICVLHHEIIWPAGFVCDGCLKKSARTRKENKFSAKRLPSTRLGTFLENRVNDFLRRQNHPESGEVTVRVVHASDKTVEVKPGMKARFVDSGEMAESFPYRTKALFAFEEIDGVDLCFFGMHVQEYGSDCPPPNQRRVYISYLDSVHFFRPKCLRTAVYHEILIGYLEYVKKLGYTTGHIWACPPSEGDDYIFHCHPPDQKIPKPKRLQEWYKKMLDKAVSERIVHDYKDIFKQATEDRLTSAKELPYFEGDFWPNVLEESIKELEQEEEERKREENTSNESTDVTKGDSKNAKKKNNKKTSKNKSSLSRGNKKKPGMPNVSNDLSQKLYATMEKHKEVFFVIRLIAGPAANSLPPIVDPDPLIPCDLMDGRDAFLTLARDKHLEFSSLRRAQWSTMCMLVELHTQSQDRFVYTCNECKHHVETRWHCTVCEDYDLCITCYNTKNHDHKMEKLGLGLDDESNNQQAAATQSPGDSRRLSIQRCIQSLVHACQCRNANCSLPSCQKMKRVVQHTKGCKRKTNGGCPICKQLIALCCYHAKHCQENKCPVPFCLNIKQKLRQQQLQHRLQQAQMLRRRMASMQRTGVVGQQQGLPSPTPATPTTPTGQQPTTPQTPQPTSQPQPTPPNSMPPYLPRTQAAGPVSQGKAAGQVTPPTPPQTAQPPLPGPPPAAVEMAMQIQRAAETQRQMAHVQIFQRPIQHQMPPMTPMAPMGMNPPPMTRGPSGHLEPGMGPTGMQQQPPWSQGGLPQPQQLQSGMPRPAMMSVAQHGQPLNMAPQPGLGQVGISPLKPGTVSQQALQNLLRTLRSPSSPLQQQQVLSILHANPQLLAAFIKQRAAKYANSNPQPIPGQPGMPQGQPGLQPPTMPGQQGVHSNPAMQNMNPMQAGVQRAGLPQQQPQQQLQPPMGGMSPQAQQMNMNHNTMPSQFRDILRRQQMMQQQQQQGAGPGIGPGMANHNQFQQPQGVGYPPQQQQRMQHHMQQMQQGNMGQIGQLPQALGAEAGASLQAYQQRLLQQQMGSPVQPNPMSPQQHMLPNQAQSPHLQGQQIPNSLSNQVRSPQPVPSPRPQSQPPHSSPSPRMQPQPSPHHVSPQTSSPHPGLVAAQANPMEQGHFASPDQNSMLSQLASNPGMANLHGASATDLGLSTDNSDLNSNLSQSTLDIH
p300 HAT domain (residues 1287-1666), sequence (Q09472 1287-1666): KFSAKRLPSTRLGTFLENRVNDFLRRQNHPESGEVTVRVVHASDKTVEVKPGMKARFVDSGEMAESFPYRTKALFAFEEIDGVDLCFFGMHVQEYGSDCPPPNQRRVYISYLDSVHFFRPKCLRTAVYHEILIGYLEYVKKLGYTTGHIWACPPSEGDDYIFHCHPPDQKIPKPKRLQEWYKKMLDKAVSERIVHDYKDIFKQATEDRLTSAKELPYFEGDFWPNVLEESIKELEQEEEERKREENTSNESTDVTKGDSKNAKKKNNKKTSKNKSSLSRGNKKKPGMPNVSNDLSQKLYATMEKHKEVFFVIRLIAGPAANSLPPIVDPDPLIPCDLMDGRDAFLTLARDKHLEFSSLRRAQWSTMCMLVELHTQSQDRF

SMILES | IC50 [1] [µM] | IC50 (full length p300) [nM] | EC50 [2] [nM]
O=C(c1c[nH]c2ccccc12)C(NCCc1ccc(Cl)cc1)c1ccccn1 (racemic) [42 Racemic, (rac)-2-((4-chlorophenethyl)amino)-1-(1H-indol-3-yl)-2-(pyridin-2-yl)ethan-1-one] | 9.14 | 196 | –
O=C(c1c[nH]c2ccccc12)C(NCCc1ccc(Cl)cc1)c1ccncc1 (racemic) [44 Racemic, (rac)-2-((4-chlorophenethyl)amino)-1-(1H-indol-3-yl)-2-(pyridin-4-yl)ethan-1-one] | 3.33 | 120 | –
NS(=O)(=O)c1ccc(CCNC(C(=O)c2c[nH]c3cccnc23)c2ccccc2)cc1 (racemic) [Example 30, (rac)-4-(2-((2-oxo-1-phenyl-2-(1H-pyrrolo[3,2-b]pyridin-3-yl)ethyl)amino)ethyl) benzenesulfonamide] | 32.3 | 732 | –
NS(=O)(=O)c1ccc(CCNC(C(=O)c2c[nH]c3ccncc23)c2ccccc2)cc1 (racemic) [Example 31, (rac)-4-(2-((2-oxo-1-phenyl-2-(1H-pyrrolo[3,2-c]pyridin-3-yl)ethyl)amino)ethyl) benzenesulfonamide] | 33.9 | 10600 | –
COc1ccccc1CCNC(C(=O)c1c[nH]c2ccccc12)c1ccccc1 (single isomer, unassigned) [6 Isomer 2] | 1.83 | 82 | –
COc1cccc(CCNC(C(=O)c2c[nH]c3ccccc23)c2ccccc2)c1 (single isomer, unassigned) [7 Isomer 2] | 5.14 | 269 | –
COc1ccc(CCNC(C(=O)c2c[nH]c3ccccc23)c2ccccc2)cc1 (single isomer, unassigned) [8 Isomer 2] | 0.873 | 27.7 | –
O=C(c1c[nH]c2ccccc12)C(NCCc1ccccn1)c1ccccc1 (single isomer, unassigned) [9 Isomer 1] | > 60 | 25900 | –
O=C(c1c[nH]c2ccccc12)C(NCCc1ccccn1)c1ccccc1 (single isomer, unassigned) [9 Isomer 2] | 33.2 | 728 | –
O=C(c1c[nH]c2ccccc12)C(NCCc1cccnc1)c1ccccc1 (single isomer, unassigned) [10 Isomer 1] | 21.2 | 630 | –
O=C(c1c[nH]c2ccccc12)C(NCCc1cccnc1)c1ccccc1 (single isomer, unassigned) [10 Isomer 2] | 19.2 | 711 | –
O=C(c1c[nH]c2ccccc12)C(NCCc1ccncc1)c1ccccc1 (single isomer, unassigned) [11 Isomer 1] | 9.94 | 204 | –
O=C(c1c[nH]c2ccccc12)C(NCCc1ccncc1)c1ccccc1 (single isomer, unassigned) [11 Isomer 2] | 7.15 | 197 | –
NS(=O)(=O)c1ccc(CCNC(C(=O)c2c[nH]c3cccc(Cl)c23)c2ccccc2)cc1 (single isomer, unassigned) [12 Isomer 1] | > 60 | 8500 | –
NS(=O)(=O)c1ccc(CCNC(C(=O)c2c[nH]c3cccc(Cl)c23)c2ccccc2)cc1 (single isomer, unassigned) [12 Isomer 2] | > 60 | 3940 | –
NS(=O)(=O)c1ccc(CCNC(C(=O)c2c[nH]c3cc(Cl)ccc23)c2ccccc2)cc1 (single isomer, unassigned) [13 Isomer 1] | 18.1 | 472 | –
NS(=O)(=O)c1ccc(CCNC(C(=O)c2c[nH]c3cc(Cl)ccc23)c2ccccc2)cc1 (single isomer, unassigned) [13 Isomer 2] | 1.62 | 144 | –
NS(=O)(=O)c1ccc(CCNC(C(=O)c2c[nH]c3ccc(Cl)cc23)c2ccccc2)cc1 (single isomer, unassigned) [14 Isomer 1] | > 60 | 9540 | –
NS(=O)(=O)c1ccc(CCNC(C(=O)c2c[nH]c3ccc(Cl)cc23)c2ccccc2)cc1 (single isomer, unassigned) [14 Isomer 2] | 47.4 | 1860 | –
Cc1[nH]c2ccccc2c1C(=O)C(NCCc1ccc(S(N)(=O)=O)cc1)c1ccccc1 (single isomer, unassigned) [16 Isomer 2] | 6.98 | 378 | –

SMILES | IC50 [1] [µM] | IC50 (full length p300) [nM] | EC50 [2] [nM]
COc1ccc(CCNC(C(=O)c2c[nH]c3c(CCC(=O)N(C)C)cccc23)c2ccccc2)cc1 (single isomer, unassigned) [29 Isomer 1] | 2.19 | 91.1 | –
COc1ccc(CCNC(C(=O)c2c[nH]c3c(CCC(=O)N(C)C)cccc23)c2ccccc2)cc1 (single isomer, unassigned) [29 Isomer 2] | 6.6 | 220 | –
NS(=O)(=O)c1ccc(CCNC(C(=O)c2c[nH]c3cnccc23)c2ccccc2)cc1 (single isomer, unassigned) [32 Isomer 2] | 12.9 | 744 | –
NS(=O)(=O)c1ccc(CCNC(C(=O)c2c[nH]c3ncccc23)c2ccccc2)cc1 (single isomer, unassigned) [33 Isomer 1] | > 60 | 1750 | –
NS(=O)(=O)c1ccc(CCNC(C(=O)c2c[nH]c3ncccc23)c2ccccc2)cc1 (single isomer, unassigned) [33 Isomer 2] | 10 | 554 | –
Cc1nc(C(=O)C(NCCc2ccc(Cl)cc2)c2ccccc2)c2ccccn12 (single isomer, unassigned) [45 Isomer 2] | 39.8 | 1350 | –
O=C(c1cnc2ccccn12)C(NCCc1ccc(Cl)cc1)c1ccccc1 (single isomer, unassigned) [46 Isomer 1] | 9 | 13100 | –
O=C(c1n[nH]c2ccccc12)C(NCCc1ccc(Cl)cc1)c1ccccc1 (single isomer, unassigned) [47 Isomer 1] | 4.8 | 1310 | –
O=C(c1n[nH]c2ccccc12)C(NCCc1ccc(Cl)cc1)c1ccccc1 (single isomer, unassigned) [47 Isomer 2] | 20.3 | 1300 | –
CNC(=O)Cc1ccc2c(C(=O)C(NCCc3ccc(C#N)cc3)c3ccccc3)c[nH]c2c1 (single isomer, unassigned) [62 Isomer 1] | 0.501 | 37.2 | –
CNC(=O)Cc1ccc2c(C(=O)C(NCCc3ccc(C#N)cc3)c3ccccc3)c[nH]c2c1 (single isomer, unassigned) [62 Isomer 2] | 3.34 | 51.3 | –
CN(C)C(=O)Cc1ccc2c(C(=O)C(NCCc3ccc(C#N)cc3)c3ccccc3)c[nH]c2c1 (single isomer, unassigned) [63 Isomer 2] | 2.5 | 46.2 | –
O=C(c1c[nH]c2cc(-c3ccccn3)ccc12)C(NCCc1ccc(F)cc1)c1ccccc1 (single isomer, unassigned) [105 Isomer 2] | 1.38 | 25.1 | –
CN(C)C(=O)c1ccc(CCNC(C(=O)c2c[nH]c3ccccc23)c2ccccc2)cc1 (single isomer, unassigned) [135 Isomer 2] | 28.8 | 819 | –
Cn1cc(-c2ccc3c(C(=O)C(NCCc4ccc(C(=O)O)cc4)c4ccccc4)c[nH]c3c2)cn1 (single isomer, unassigned) [138 Isomer 1] | 0.442 | 30 | –
COc1ccc(CCN[C@H](C(=O)c2c[nH]c3c(C(C)C)cccc23)c2ccccc2)cc1 (single isomer, unassigned) [145 Isomer 1] | 18.5 | 593 | –
Cn1cc(-c2ccc3c(C(=O)C(NCCc4ccc(C(N)=O)cc4)c4ccccc4)cnn3c2)cn1 (single isomer, unassigned) [179 Isomer 1] | 0.302 | – | 192
Cn1cc(-c2ccc3c(C(=O)C(NCCc4ccc(C(N)=O)cc4)c4ccccc4)c[nH]c3c2)nn1 (single isomer, unassigned) [180 Isomer 2] | 0.37 | – | 219
NC(=O)c1ccc(CCNC(C(=O)c2c[nH]c3cc(-n4ccnc4)ccc23)c2ccccc2)cc1 (single isomer, unassigned) [181 Isomer 1] | 0.642 | – | 243
